Measured values published in patent EP4603105A1, “PHARMACEUTICAL COMPOSITION CONTAINING CYCLIC COMPOUND HAVING SELECTIVE KRAS INHIBITORY EFFECT AGAINST HRAS AND NRAS” (CHUGAI SEIYAKU KABUSHIKI KAISHA, priority 2022, dated 2024).
Where a SMILES comes first, the peptide text is derived from it. Bridges are numbered along the chain shown (N, C = ends). [ ]: non-standard residue; d: D form. The star is where a group is joined. hPhe(3-Cl-4-CF3) = N[C@@H](CCc1ccc(C(F)(F)F)c(Cl)c1)C(=O)O; NPrPhe(4-CF3) = CCCN[C@@H](Cc1ccc(C(F)(F)F)cc1)C(=O)O; NMeGly(cPent) = CN[C@H](C(=O)O)C1CCCC1; Pro(4,4-F2) = O=C(O)[C@@H]1CC(F)(F)CN1; NMeD = CN[C@@H](CC(=O)O)C(=O)O; NMeL = CN[C@@H](CC(C)C)C(=O)O; Morpholide = C1CN(*)CCO1; Ac5c = NC1(C(=O)O)CCCC1; Sar = CNCC(=O)O

Legend:
[1] = system: human lung cancer strain NCI-H441; format: cell-based
Summary of the method: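 Readout: […] after the ATP-based reagent. Compound: serial dilutions in dimethyl sulfoxide.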

[2] = target: GDP-bound NRAS wild-type protein (Homo sapiens, UniProt P01111); experiment: Binding to NRAS by surface plasmon resonance (SPR), KD and KD ratio to KRAS
Sequence of GDP-bound NRAS wild-type protein (P01111 whole entry): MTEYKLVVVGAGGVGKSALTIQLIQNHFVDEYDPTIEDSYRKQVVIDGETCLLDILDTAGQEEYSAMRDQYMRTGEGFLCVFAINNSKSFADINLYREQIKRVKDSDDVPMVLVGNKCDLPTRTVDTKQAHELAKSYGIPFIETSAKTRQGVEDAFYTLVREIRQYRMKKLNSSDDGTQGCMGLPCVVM
Summary of the method: (§1)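 GDP-bound biotin-Avi RAS captured at ~100–300 RU, 30°C, pH 7.4 HBS containing 10 µM GDP, 10 mM MgCl2, 1 mM DTT, 0.01% Tween 20 and 4% DMSO. KD by 1:1 fitting.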

HRAS wild-type protein = HRAS wild-type protein (Homo sapiens, UniProt P01112); experiment: Binding to HRAS by surface plasmon resonance (SPR), KD and KD ratio to KRAS
Sequence of HRAS wild-type protein (P01112 whole entry): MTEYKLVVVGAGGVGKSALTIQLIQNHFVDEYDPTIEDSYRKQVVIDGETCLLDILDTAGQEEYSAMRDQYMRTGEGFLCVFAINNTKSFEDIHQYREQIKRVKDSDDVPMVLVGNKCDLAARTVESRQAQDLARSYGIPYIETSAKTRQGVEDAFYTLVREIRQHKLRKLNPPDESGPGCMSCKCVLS
Summary of the method: as §1

[3] = ratio of the KD value with respect to GDP-bound NRAS wild-type protein to the KD value with respect to KRAS
[4] = ratio of the KD value with respect to HRAS wild-type protein to the KD value with respect to KRAS
[5] = ratio of KD value for GDP-bound NRAS wild-type protein to KD value for KRAS (SPR)
[6] = ratio of KD value for HRAS wild-type protein to KD value for KRAS (SPR)
[7] = ratio of KD for GDP-bound NRAS wild-type protein to KD for KRAS
[8] = ratio of KD for HRAS wild-type protein to KD for KRAS

SMILES	IC50 [1]	NRAS /KRAS [2, 3]	HRAS /KRAS (HRAS wild-type protein; [4])	NRAS /KRAS [2, 5]	HRAS /KRAS (HRAS wild-type protein; [6])	NRAS /KRAS [2, 7]	HRAS /KRAS (HRAS wild-type protein; [8])
CCO[C@@H]1C[C@H]2C(=O)NC3(CCC3)C(=O)N(C)[C@@H](C3CCCC3)C(=O)N(C)[C@H](C(=O)N3CCOCC3)CC(=O)N(C)[C@@H](CC3CCCC3)C(=O)N[C@@H]([C@@H](C)CC)C(=O)N(C)CC(=O)N(C)[C@H]3CCCCN(C3=O)[C@@H](Cc3ccc(C(F)(F)F)cc3)C(=O)N(C)CC(=O)N[C@@H](CCc3cc(F)c(C(F)(F)F)c(F)c3)C(=O)N2C1 [PP0715]	4.5 nM	C (A compound having a KD ratio of 0.1 or more and less than 3 is denoted as C)	B (a compound having 3 or more and less than 10 is denoted as B)	–	–	–	–
CCO[C@@H]1C[C@H]2C(=O)NC3(CCC3)C(=O)N(C)[C@@H](C(CC)CC)C(=O)N(C)C(C(C)C)CC(=O)N(C)[C@@H](CC)C(=O)N[C@@H]([C@@H](C)CC)C(=O)N(C)CC(=O)N(C)[C@H]3C/C=C\CCN(C3=O)[C@@H](Cc3ccc(C(F)(F)F)cc3)C(=O)N(C)CC(=O)N[C@@H](CCc3cc(F)c(C(F)(F)F)c(F)c3)C(=O)N2C1 (stereo partly drawn) [PP1589]	86.6 nM	–	–	A (a compound having 10 or more and less than 20 is denoted as A)	A (a compound having 10 or more and less than 20 is denoted as A)	–	–
CCO[C@@H]1C[C@H]2C(=O)NC3(CC(C)(C)C3)C(=O)N(C)[C@@H](C3CCCC3)C(=O)N(C)[C@H](C(=O)N(C)C)CC(=O)N(C)[C@@H](C3CCC3)C(=O)N[C@@H]([C@@H](C)CC)C(=O)N(C)CC(=O)N(C)[C@H]3C/C=C\CCN(C3=O)[C@@H](Cc3ccc(C(F)(F)F)cc3)C(=O)N(C)CC(=O)N[C@@H](CCc3ccc(C(F)(F)F)c(OC)c3)C(=O)N2C1 [PP1987]	6.6 nM	A (a compound having 10 or more and less than 20 is denoted as A)	A (a compound having 10 or more and less than 20 is denoted as A)	–	–	–	–
CCO[C@@H]1C[C@H]2C(=O)NC3(CCC3)C(=O)N(C)[C@@H](C3CCCC3)C(=O)N(C)[C@H](C(=O)N3CCOCC3)CC(=O)N(C)[C@@H](Cc3ccccc3Cl)C(=O)N[C@@H]([C@@H](C)CC)C(=O)N(C)CC(=O)N(C)[C@H]3CCCCCN(C3=O)[C@@H](Cc3ccc(C(F)(F)F)cc3)C(=O)N(C)CC(=O)N[C@@H](CCc3cc(F)c(C(F)(F)F)c(F)c3)C(=O)N2C1 [PP0929]	317 nM	–	–	–	–	A (a compound having 10 or more and less than 20 is denoted as A)	B (a compound having 3 or more and less than 10 is denoted as B)
CC[C@H](C)[C@@H]1NC(=O)[C@H](CC(C)C)N(C)C(=O)C[C@@H](C(=O)N2CCOCC2)N(C)C(=O)[C@H](C2CCCC2)N(C)C(=O)C2(CC(F)(F)C2)NC(=O)[C@@H]2CCCN2C(=O)[C@H](CCc2cc(F)c(C(F)(F)F)c(F)c2)NC(=O)CN(C)C(=O)[C@H](Cc2ccc(C(F)(F)F)cc2)N2CCCCC[C@@H](C2=O)N(C)C(=O)CN(C)C1=O [PP0499]	44.9 nM	B (a compound having 3 or more and less than 10 is denoted as B)	B (a compound having 3 or more and less than 10 is denoted as B)	–	–	–	–
CC[C@H](C)[C@@H]1NC(=O)[C@H](CC(C)C)N(C)C(=O)C[C@@H](C(=O)N(C)C)N(C)C(=O)[C@H](C2CCCC2)N(C)C(=O)C2(CCC2)NC(=O)[C@@H]2C[C@@H](C)CN2C(=O)[C@H](CCc2cc(F)c(C(F)(F)F)c(F)c2)NC(=O)CN(C)C(=O)[C@H](Cc2ccc(C)cc2)N2CC/C=C\C[C@@H](C2=O)N(C)C(=O)CN(C)C1=O [PP1866]	11.1 nM	–	–	A (a compound having 10 or more and less than 20 is denoted as A)	B (a compound having 3 or more and less than 10 is denoted as B)	–	–
CC[C@H](C)[C@@H]1NC(=O)[C@H](CC(C)C)N(C)C(=O)C[C@@H](C(=O)N2CCOCC2)N(C)C(=O)[C@H](C2CCC2)N(C)C(=O)C2(CCCC2)NC(=O)[C@@H]2CCCN2C(=O)[C@H](CCc2cc(F)c(C(F)(F)F)c(F)c2)NC(=O)CN(C)C(=O)[C@H](Cc2ccc(C(F)(F)F)cc2)N2CCCC[C@@H](C2=O)N(C)C(=O)CN(C)C1=O [PP0566]	18.4 nM	B (a compound having 3 or more and less than 10 is denoted as B)	B (a compound having 3 or more and less than 10 is denoted as B)	–	–	–	–
CC[C@H](C)[C@@H]1NC(=O)[C@H](CC(C)C)N(C)C(=O)C[C@@H](C(=O)N2CCOCC2)N(C)C(=O)[C@H](C2CCCC2)N(C)C(=O)C2(CCC2)NC(=O)[C@@H]2C[C@@H](O)CN2C(=O)[C@H](CCc2cc(F)c(C(F)(F)F)c(F)c2)NC(=O)CN(C)C(=O)[C@H](Cc2ccc(C(F)(F)F)cc2)N2CCCC[C@@H](C2=O)N(C)C(=O)CN(C)C1=O [PP0868]	70.8 nM	–	–	–	–	C (A compound having a KD ratio of 0.1 or more and less than 3 is denoted as C)	B (a compound having 3 or more and less than 10 is denoted as B)
CCO[C@@H]1C[C@H]2C(=O)NC3(CCC3)C(=O)N(C)[C@@H](C3CCCC3)C(=O)N(C)[C@H](C(=O)N3CCOCC3)CC(=O)N(C)[C@@H](CC)C(=O)N[C@@H]([C@@H](C)CC)C(=O)N(C)CC(=O)N(C)[C@H]3CCCCN(C3=O)[C@@H](Cc3ccc(C(F)(F)F)cc3)C(=O)N(C)CC(=O)N[C@@H](CCc3cc(F)c(C(F)(F)F)c(F)c3)C(=O)N2C1 [PP0708]	5.5 nM	B (a compound having 3 or more and less than 10 is denoted as B)	B (a compound having 3 or more and less than 10 is denoted as B)	–	–	–	–
CC[C@H](C)[C@@H]1NC(=O)[C@H](CC(C)C)N(C)C(=O)C[C@@H](C(=O)N2CCOCC2)N(C)C(=O)[C@H](C2CCCC2)N(C)C(=O)C(C)(C)NC(=O)[C@@H]2CCCN2C(=O)[C@H](CCc2cc(F)c(C(F)(F)F)c(F)c2)NC(=O)CN(C)C(=O)[C@H](Cc2ccc(C(F)(F)F)cc2)N2CCCC[C@@H](C2=O)N(C)C(=O)CN(C)C1=O [PP0565]	11.5 nM	C (A compound having a KD ratio of 0.1 or more and less than 3 is denoted as C)	B (a compound having 3 or more and less than 10 is denoted as B)	–	–	–	–
CCCN1C(=O)CN(C)C(=O)CN(C)C(=O)[C@H]([C@@H](C)CC)NC(=O)[C@H](CC(C)C)N(C)C(=O)C[C@@H](C(=O)N2CCOCC2)N(C)C(=O)[C@H](C2CCCC2)N(C)C(=O)C2(CCCC2)NC(=O)[C@@H]2CC(F)(F)CN2C(=O)[C@H](CCc2ccc(C(F)(F)F)c(Cl)c2)NC(=O)CN(C)C(=O)[C@@H]1Cc1ccc(C(F)(F)F)cc1 [PP0195] ([NMeL]I[Sar][Sar][NPrPhe(4-CF3)][Sar][hPhe(3-Cl-4-CF3)][Pro(4,4-F2)][Ac5c][NMeGly(cPent)][NMeD]-Morpholide; lactam N-11)	2.7 nM	–	–	–	–	B (a compound having 3 or more and less than 10 is denoted as B)	C (A compound having a KD ratio of 0.1 or more and less than 3 is denoted as C)
CCO[C@@H]1C[C@H]2C(=O)NC3(CCC3)C(=O)N(C)[C@@H](C3CCCC3)C(=O)N(C)[C@H](C(=O)N3CCCCC3)CC(=O)N(C)[C@H]3CCCCCCc4ccc(cc4)C[C@@H](C(=O)N(C)CC(=O)N[C@@H](CCc4ccc(C(F)(F)F)c(OC)c4)C(=O)N2C1)N1CC/C=C\C[C@@H](C1=O)N(C)C(=O)CN(C)C(=O)[C@H]([C@@H](C)CC)NC3=O [PP3033]	4.7 nM	–	–	–	–	A (a compound having 10 or more and less than 20 is denoted as A)	B (a compound having 3 or more and less than 10 is denoted as B)
